{
  "source": "patent US20170231911A1",
  "about": "“METHODS AND COMPOSITIONS FOR IMPROVING OUTCOMES OF LIPOSOMAL CHEMOTHERAPY” (Merrimack Pharmaceuticals, Inc., priority 2013, published 2017)",
  "key": {"[1]": {"system": "BT474-M3 breast cancer tumor cells", "details": "cyclophosphamide 170 mg/kg pre-dose", "experimental": "NCR/nu mice are inoculated with 15×10^6 BT474-M3 cells (into the mammary fat pad, in 50 μl media), 20×10^6 MDA-MB-453 (s.c. into the right flank of the mouse in 100 μl of media) or 10×10^6 MCF-7 HER2 cells (into the mammary fat pad, in 50 μl media). […] When tumors reached an average volume of 200-300 mm^3, mice are pre-dosed or not with cyclophosphamide (i.p. 170 mg/kg) at different time points as indicated. Mice are subsequently dosed with DiI5-labeled anthracycline-loaded anti-HER2 immunoliposome-targeted liposomal doxorubicin (3 mg/kg), DiI5-labelled liposomal doxorubicin PLD (3 mg/kg), or free doxorubicin all at (3 mg/kg). […]\nTumor, heart and the dorsal skin are collected and frozen at −80° for further HPLC doxorubicin quantification.\nTumors, hearts and dorsal skin are weighed and minced. […] Supernatants and doxorubicin standards are analyzed by HPLC (Dionex) using a C18 reverse phase column (Synergi Polar-RP 80A 250×4.60 mm 4 μm column). […] The doxorubicin peak is detected at 6.9 min using an in-line fluorescence detector excited at 485 nm, and emitting at 590 nm. The extraction efficiency of doxorubicin from tumor, heart and skin tissues is estimated using internal control tissues spiked with known amounts of doxorubicin, and sample readings are corrected to account for the extraction efficiency. […]"}, "[2]": {"details": "96 hours after cyclophosphamide treatment"}},
  "data": [
    {"smiles": "O.O=P1(N(CCCl)CCCl)NCCCO1", "note": "(stereo not shown) [cyclophosphamide, 2-[bis(2-chloroethyl)amino]tetrahydro-2H-1,3,2-oxazaphosphorine 2-oxide monohydrate]", "values": [
      {"measurement": "effect of cyclophosphamide on non-target organs such as skin or heart", "setting": "[1]", "value": "no effects were observed"},
      {"measurement": "effect on non-tumor cells", "setting": "BT474-M3 tumor; [2]", "value": "non-tumor cells were unaffected"},
      {"measurement": "interstitial space vs control", "setting": "BT474-M3 tumor; [2]", "value": "significantly more interstitial space than the control cell sample"},
      {"measurement": "tumor cell apoptosis, tumor cell density and interstitial space", "setting": "BT474-M3 tumor; tissue harvested 48 hr-120 hr post cyclophosphamide", "value": "induction of tumor cell apoptosis and consequent reduction of tumor cell density and increase in interstitial space"}
    ]}
  ]
}
